Data on eight compounds can be found in ChEMBL document CHEMBL1124300, “Deletion sequences of salmon calcitonin that retain the essential biological and conformational features of the intact molecule” (1988).

Residues, ends and D or L forms follow the SMILES beside them.

The test system of the assay is Rattus norvegicus. Briefly: In vivo hypocalcemic activity measuring the hormone-induced decrease of blood calcium levels in rats. Format: functional.
For `CC(C)C[C@H](NC(=O)[C@H](CCCCN)NC(=O)CNC(=O)[C@H](CC(C)C)NC(=O)[C@@H](NC(=O)[C@@H]1CSSC[C@H](N)C(=O)N[C@@H](CO)C(=O)N[C@@H](CC(N)=O)C(=O)N[C@@H](CC(C)C)C(=O)N[C@@H](CO)C(=O)N[C@@H]([C@@H](C)O)C(=O)N1)C(C)C)C(=O)N[C@@H](CO)C(=O)N[C@@H](CCC(N)=O)C(=O)N[C@@H](CCC(=O)O)C(=O)N[C@@H](CC(C)C)C(=O)N[C@@H](Cc1c[nH]cn1)C(=O)N[C@@H](CCCCN)C(=O)N[C@@H](CC(C)C)C(=O)N[C@@H](CCC(N)=O)C(=O)N[C@H](C(=O)N1CCC[C@H]1C(=O)N[C@@H](CCCN=C(N)N)C(=O)N[C@H](C(=O)N[C@@H](CC(N)=O)C(=O)N[C@H](C(=O)NCC(=O)N[C@@H](CO)C(=O)NCC(=O)N[C@H](C(=O)N1CCC[C@H]1C(N)=O)[C@@H](C)O)[C@@H](C)O)[C@@H](C)O)[C@@H](C)O` (HELM PEPTIDE1{C.S.N.L.S.T.C.V.L.G.K.L.S.Q.E.L.H.K.L.Q.T.P.R.T.N.T.G.S.G.T.P.[am]}$PEPTIDE1,PEPTIDE1,1:R3-7:R3$$$V2.0), the Hypocalcemic activity is 5200 IU mg-1.

Regarding `CC(C)C[C@H](NC(=O)[C@H](CCCCN)NC(=O)CNC(=O)[C@H](CC(C)C)NC(=O)[C@@H](NC(=O)[C@@H]1CSSC[C@H](N)C(=O)N[C@@H](CO)C(=O)N[C@@H](CC(N)=O)C(=O)N[C@@H](CC(C)C)C(=O)N[C@@H](CO)C(=O)N[C@@H]([C@@H](C)O)C(=O)N1)C(C)C)C(=O)N[C@@H](CO)C(=O)N[C@@H](CCC(N)=O)C(=O)N[C@@H](CCC(=O)O)C(=O)N[C@@H](CC(C)C)C(=O)N[C@@H](Cc1c[nH]cn1)C(=O)N[C@@H](CCCCN)C(=O)N[C@@H](CC(C)C)C(=O)N[C@@H](CCC(N)=O)C(=O)N[C@@H](Cc1ccc(O)cc1)C(=O)N1CCC[C@H]1C(=O)N[C@@H](CCCN=C(N)N)C(=O)N[C@H](C(=O)N[C@@H](CC(N)=O)C(=O)N[C@H](C(=O)NCC(=O)N[C@@H](CO)C(=O)NCC(=O)N[C@H](C(=O)N1CCC[C@H]1C(N)=O)[C@@H](C)O)[C@@H](C)O)[C@@H](C)O` (HELM PEPTIDE1{C.S.N.L.S.T.C.V.L.G.K.L.S.Q.E.L.H.K.L.Q.Y.P.R.T.N.T.G.S.G.T.P.[am]}$PEPTIDE1,PEPTIDE1,1:R3-7:R3$$$V2.0), the Hypocalcemic activity was 5500 IU mg-1.

On to `CC(C)C[C@H](NC(=O)[C@H](CCCCN)NC(=O)CNC(=O)[C@H](CC(C)C)NC(=O)[C@@H](NC(=O)[C@@H]1CSSC[C@H](N)C(=O)N[C@@H](CO)C(=O)N[C@@H](CC(N)=O)C(=O)N[C@@H](CC(C)C)C(=O)N[C@@H](CO)C(=O)N[C@@H]([C@@H](C)O)C(=O)N1)C(C)C)C(=O)N[C@@H](CO)C(=O)N[C@@H](CCC(N)=O)C(=O)N[C@@H](CCC(=O)O)C(=O)N[C@@H](CC(C)C)C(=O)N[C@@H](Cc1c[nH]cn1)C(=O)N[C@@H](CCCCN)C(=O)N[C@@H](CC(C)C)C(=O)N[C@H](C(=O)N[C@@H](Cc1ccc(O)cc1)C(=O)N1CCC[C@H]1C(=O)N[C@@H](CCCN=C(N)N)C(=O)N[C@H](C(=O)N[C@@H](CC(N)=O)C(=O)N[C@H](C(=O)NCC(=O)N[C@@H](CO)C(=O)NCC(=O)N[C@H](C(=O)N1CCC[C@H]1C(N)=O)[C@@H](C)O)[C@@H](C)O)[C@@H](C)O)[C@@H](C)O` (HELM PEPTIDE1{C.S.N.L.S.T.C.V.L.G.K.L.S.Q.E.L.H.K.L.T.Y.P.R.T.N.T.G.S.G.T.P.[am]}$PEPTIDE1,PEPTIDE1,1:R3-7:R3$$$V2.0), for which the Hypocalcemic activity is given as 4000 IU mg-1.

On to `CC(C)C[C@H](NC(=O)[C@H](CCCCN)NC(=O)CNC(=O)[C@H](CC(C)C)NC(=O)[C@@H](NC(=O)[C@@H]1CSSC[C@H](N)C(=O)N[C@@H](CO)C(=O)N[C@@H](CC(N)=O)C(=O)N[C@@H](CC(C)C)C(=O)N[C@@H](CO)C(=O)N[C@@H]([C@@H](C)O)C(=O)N1)C(C)C)C(=O)N[C@@H](CO)C(=O)N[C@@H](CCC(N)=O)C(=O)N[C@@H](CCC(=O)O)C(=O)N[C@@H](CC(C)C)C(=O)N[C@@H](Cc1c[nH]cn1)C(=O)N[C@@H](CCCCN)C(=O)N1CCC[C@H]1C(=O)N[C@@H](CCCN=C(N)N)C(=O)N[C@H](C(=O)N[C@@H](CC(N)=O)C(=O)N[C@H](C(=O)NCC(=O)N[C@@H](CO)C(=O)NCC(=O)N[C@H](C(=O)N1CCC[C@H]1C(N)=O)[C@@H](C)O)[C@@H](C)O)[C@@H](C)O` (HELM PEPTIDE1{C.S.N.L.S.T.C.V.L.G.K.L.S.Q.E.L.H.K.P.R.T.N.T.G.S.G.T.P.[am]}$PEPTIDE1,PEPTIDE1,1:R3-7:R3$$$V2.0), for which the Hypocalcemic activity is listed as 6300 IU mg-1.

`CC(C)C[C@H](NC(=O)[C@H](CCCCN)NC(=O)CNC(=O)[C@H](CC(C)C)NC(=O)[C@@H](NC(=O)[C@@H]1CSSC[C@H](N)C(=O)N[C@@H](CO)C(=O)N[C@@H](CC(N)=O)C(=O)N[C@@H](CC(C)C)C(=O)N[C@@H](CO)C(=O)N[C@@H]([C@@H](C)O)C(=O)N1)C(C)C)C(=O)N[C@@H](CO)C(=O)N[C@@H](CCC(N)=O)C(=O)N[C@@H](CCC(=O)O)C(=O)N[C@@H](CC(C)C)C(=O)N[C@@H](Cc1c[nH]cn1)C(=O)N[C@@H](CCCCN)C(=O)N[C@@H](CCC(N)=O)C(=O)N[C@H](C(=O)N[C@@H](Cc1ccc(O)cc1)C(=O)N1CCC[C@H]1C(=O)N[C@@H](CCCN=C(N)N)C(=O)N[C@H](C(=O)N[C@@H](CC(N)=O)C(=O)N[C@H](C(=O)NCC(=O)N[C@@H](CO)C(=O)NCC(=O)N[C@H](C(=O)N1CCC[C@H]1C(N)=O)[C@@H](C)O)[C@@H](C)O)[C@@H](C)O)[C@@H](C)O` (HELM PEPTIDE1{C.S.N.L.S.T.C.V.L.G.K.L.S.Q.E.L.H.K.Q.T.Y.P.R.T.N.T.G.S.G.T.P.[am]}$PEPTIDE1,PEPTIDE1,1:R3-7:R3$$$V2.0): the Hypocalcemic activity is 8000 IU mg-1.

For `CC(C)C[C@H](NC(=O)[C@H](CCCCN)NC(=O)CNC(=O)[C@H](CC(C)C)NC(=O)[C@@H](NC(=O)[C@@H]1CSSC[C@H](N)C(=O)N[C@@H](CO)C(=O)N[C@@H](CC(N)=O)C(=O)N[C@@H](CC(C)C)C(=O)N[C@@H](CO)C(=O)N[C@@H]([C@@H](C)O)C(=O)N1)C(C)C)C(=O)N[C@@H](CO)C(=O)N[C@@H](CCC(N)=O)C(=O)N[C@@H](CCC(=O)O)C(=O)N[C@@H](CC(C)C)C(=O)N[C@@H](Cc1c[nH]cn1)C(=O)N[C@@H](CCCCN)C(=O)N[C@H](C(=O)N[C@@H](Cc1ccc(O)cc1)C(=O)N1CCC[C@H]1C(=O)N[C@@H](CCCN=C(N)N)C(=O)N[C@H](C(=O)N[C@@H](CC(N)=O)C(=O)N[C@H](C(=O)NCC(=O)N[C@@H](CO)C(=O)NCC(=O)N[C@H](C(=O)N1CCC[C@H]1C(N)=O)[C@@H](C)O)[C@@H](C)O)[C@@H](C)O)[C@@H](C)O` (HELM PEPTIDE1{C.S.N.L.S.T.C.V.L.G.K.L.S.Q.E.L.H.K.T.Y.P.R.T.N.T.G.S.G.T.P.[am]}$PEPTIDE1,PEPTIDE1,1:R3-7:R3$$$V2.0), the Hypocalcemic activity was 6400 IU mg-1.

For `CC(C)C[C@H](NC(=O)[C@H](CCCCN)NC(=O)CNC(=O)[C@H](CC(C)C)NC(=O)[C@@H](NC(=O)[C@@H]1CSSC[C@H](N)C(=O)N[C@@H](CO)C(=O)N[C@@H](CC(N)=O)C(=O)N[C@@H](CC(C)C)C(=O)N[C@@H](CO)C(=O)N[C@@H]([C@@H](C)O)C(=O)N1)C(C)C)C(=O)N[C@@H](CO)C(=O)N[C@@H](CCC(N)=O)C(=O)N[C@@H](CCC(=O)O)C(=O)N[C@@H](CC(C)C)C(=O)N[C@@H](Cc1c[nH]cn1)C(=O)N[C@@H](CCCCN)C(=O)N[C@@H](Cc1ccc(O)cc1)C(=O)N1CCC[C@H]1C(=O)N[C@@H](CCCN=C(N)N)C(=O)N[C@H](C(=O)N[C@@H](CC(N)=O)C(=O)N[C@H](C(=O)NCC(=O)N[C@@H](CO)C(=O)NCC(=O)N[C@H](C(=O)N1CCC[C@H]1C(N)=O)[C@@H](C)O)[C@@H](C)O)[C@@H](C)O` (HELM PEPTIDE1{C.S.N.L.S.T.C.V.L.G.K.L.S.Q.E.L.H.K.Y.P.R.T.N.T.G.S.G.T.P.[am]}$PEPTIDE1,PEPTIDE1,1:R3-7:R3$$$V2.0), the Hypocalcemic activity is listed as 7100 IU mg-1.

With `CC(C)C[C@H](NC(=O)[C@H](CCCCN)NC(=O)CNC(=O)[C@H](CC(C)C)NC(=O)[C@@H](NC(=O)[C@@H]1CSSC[C@H](N)C(=O)N[C@@H](CO)C(=O)N[C@@H](CC(N)=O)C(=O)N[C@@H](CC(C)C)C(=O)N[C@@H](CO)C(=O)N[C@@H]([C@@H](C)O)C(=O)N1)C(C)C)C(=O)N[C@@H](CO)C(=O)N[C@@H](CCC(N)=O)C(=O)N[C@@H](CCC(=O)O)C(=O)N[C@@H](CC(C)C)C(=O)N[C@@H](Cc1c[nH]cn1)C(=O)N[C@@H](CCCCN)C(=O)N[C@@H](CC(C)C)C(=O)N[C@@H](CCC(N)=O)C(=O)N[C@H](C(=O)N[C@@H](Cc1ccc(O)cc1)C(=O)N1CCC[C@H]1C(=O)N[C@@H](CCCNC(=N)N)C(=O)N[C@H](C(=O)N[C@@H](CC(N)=O)C(=O)N[C@H](C(=O)NCC(=O)N[C@@H](CO)C(=O)NCC(=O)N[C@H](C(=O)N1CCC[C@H]1C(N)=O)[C@@H](C)O)[C@@H](C)O)[C@@H](C)O)[C@@H](C)O` [CALCITONIN SALMON], the Hypocalcemic activity is on record as 4500 IU mg-1.
